Data on one molecule can be found in patent US7582767B2 (Biovitrum AB (publ.), priority 2005, dated 2009).

Molecules are shown by their SMILES. Read-outs that look alike come from different tables or passages of the source.

One experiment deals with T1, human 5-HT6 receptor (Homo sapiens, UniProt P50406).
T1 construct: expressed in transfected cells; host or cells: HEK293
In words: 5-HT6 binding assay ([3H]-LSD, SPA, membranes of transfected HEK293 cells). To be noted: at 50 nM, either/or statement of b82; read-out: % inhibition of [3H] LSD (general statement).

A further experiment deals with 5-HT1b (Homo sapiens, UniProt P28222). Put plainly: Selectivity binding 5-HT1b.
Chain of 5-HT1b (P28222 whole entry, species assumed): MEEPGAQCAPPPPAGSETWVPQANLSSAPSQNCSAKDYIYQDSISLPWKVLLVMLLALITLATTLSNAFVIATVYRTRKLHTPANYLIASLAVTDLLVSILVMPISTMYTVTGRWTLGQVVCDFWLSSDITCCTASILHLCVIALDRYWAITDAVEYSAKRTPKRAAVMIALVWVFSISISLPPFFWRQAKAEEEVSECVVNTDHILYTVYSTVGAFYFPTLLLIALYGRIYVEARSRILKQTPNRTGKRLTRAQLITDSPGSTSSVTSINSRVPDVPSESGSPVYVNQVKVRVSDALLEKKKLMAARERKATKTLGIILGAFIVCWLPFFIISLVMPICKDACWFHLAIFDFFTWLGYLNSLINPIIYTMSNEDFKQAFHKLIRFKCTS
A further experiment addresses 5-HT2a (Homo sapiens, UniProt P28223). Put plainly: Selectivity binding 5-HT2a.
The target of a further experiment is 5-HT2b (Homo sapiens, UniProt P41595). Put plainly: Selectivity binding 5-HT2b.
Chain of 5-HT2b (P41595 whole entry, species assumed): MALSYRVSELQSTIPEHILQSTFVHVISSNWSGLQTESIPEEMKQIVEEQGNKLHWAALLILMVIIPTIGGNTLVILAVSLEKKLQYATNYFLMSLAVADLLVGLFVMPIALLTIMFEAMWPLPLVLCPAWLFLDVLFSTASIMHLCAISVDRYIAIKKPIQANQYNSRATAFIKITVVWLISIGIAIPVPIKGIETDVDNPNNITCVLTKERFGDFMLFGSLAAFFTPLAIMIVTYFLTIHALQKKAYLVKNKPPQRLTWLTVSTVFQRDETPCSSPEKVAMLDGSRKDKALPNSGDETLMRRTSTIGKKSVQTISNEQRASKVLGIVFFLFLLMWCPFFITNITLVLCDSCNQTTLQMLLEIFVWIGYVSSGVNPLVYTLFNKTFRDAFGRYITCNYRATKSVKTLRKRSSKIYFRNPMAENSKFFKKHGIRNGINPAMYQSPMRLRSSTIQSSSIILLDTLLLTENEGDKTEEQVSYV
The next experiment addresses T2, 5-HT2c (Homo sapiens, UniProt P28335).
T2 sequence (P28335 33-458): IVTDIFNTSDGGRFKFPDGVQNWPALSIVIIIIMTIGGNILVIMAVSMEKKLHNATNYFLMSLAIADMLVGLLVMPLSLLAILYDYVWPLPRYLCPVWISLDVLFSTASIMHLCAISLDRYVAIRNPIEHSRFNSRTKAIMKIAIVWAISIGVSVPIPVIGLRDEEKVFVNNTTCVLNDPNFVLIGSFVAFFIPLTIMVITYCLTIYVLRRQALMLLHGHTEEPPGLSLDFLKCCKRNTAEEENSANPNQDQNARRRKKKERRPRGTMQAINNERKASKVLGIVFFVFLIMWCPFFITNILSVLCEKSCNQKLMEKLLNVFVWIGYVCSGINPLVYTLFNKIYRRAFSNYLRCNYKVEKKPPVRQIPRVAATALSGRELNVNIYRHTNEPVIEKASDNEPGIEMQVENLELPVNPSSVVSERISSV
In words: Selectivity binding 5-HT2c.

In experiment [1] the target is T3, κ (KOP) (Cavia porcellus, UniProt P41144).
T3 construct: Guinea-pig cerebellum; from tissue; host or cells: guinea-pig cerebellum
T3 sequence (P41144 whole entry): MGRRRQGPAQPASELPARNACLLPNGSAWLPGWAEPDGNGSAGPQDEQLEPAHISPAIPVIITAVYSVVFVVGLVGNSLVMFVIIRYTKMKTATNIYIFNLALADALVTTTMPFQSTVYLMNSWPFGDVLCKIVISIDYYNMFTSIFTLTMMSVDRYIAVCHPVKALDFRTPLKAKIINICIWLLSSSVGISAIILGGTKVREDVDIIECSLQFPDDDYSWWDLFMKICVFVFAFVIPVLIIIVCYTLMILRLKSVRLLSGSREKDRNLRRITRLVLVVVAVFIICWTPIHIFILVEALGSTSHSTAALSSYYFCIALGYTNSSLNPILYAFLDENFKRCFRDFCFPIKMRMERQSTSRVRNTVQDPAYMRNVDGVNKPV
Put plainly: κ (KOP) binding (guinea-pig cerebellum).

The next experiment concerns the target T4, 5-HT3 (Homo sapiens, UniProt P46098).
T4 construct: expressed in transfected cells; host or cells: HEK-293 cells
T4 sequence (P46098 24-478): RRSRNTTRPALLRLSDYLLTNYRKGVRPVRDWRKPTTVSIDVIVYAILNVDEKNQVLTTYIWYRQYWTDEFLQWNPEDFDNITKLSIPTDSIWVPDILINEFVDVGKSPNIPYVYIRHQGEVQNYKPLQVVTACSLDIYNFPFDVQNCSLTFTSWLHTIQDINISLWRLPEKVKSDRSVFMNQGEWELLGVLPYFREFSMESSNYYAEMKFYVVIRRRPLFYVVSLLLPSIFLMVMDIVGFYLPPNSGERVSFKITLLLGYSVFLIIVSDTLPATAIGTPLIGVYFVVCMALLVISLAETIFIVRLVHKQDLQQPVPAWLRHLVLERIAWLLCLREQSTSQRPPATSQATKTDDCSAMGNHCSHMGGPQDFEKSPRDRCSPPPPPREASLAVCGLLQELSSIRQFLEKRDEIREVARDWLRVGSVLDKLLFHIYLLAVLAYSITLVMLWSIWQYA
Put plainly: 5-HT3 binding (human recombinant, HEK-293 cells).

Experiment [2] has as its target κ (KOP) (Homo sapiens, UniProt P41145). In words: κ (KOP) EC50 (method not described).
The next experiment relates to food intake of DIO rats. Put plainly: Effect on food intake, 28 days oral treatment of DIO rats. In kind it is in vivo, male Sprague-Dawley rats. To be noted: for food intake versus vehicle, Dunnets t-test: first seven days. On the procedure: (c) Effect on Body Weight and on Food Intake
The corresponding solution was used as vehicle. The stability of the solutions were checked upon storage for 14 days. Solutions were formulated twice a week and stored in freezer. The solutions were analysed for the actual concentrations and found similar between the two occasions.
Hundred (100) male Sprague-Dawley rats were raised on high fat diet at Scanbur BK AB (Sollentuna, Sweden) which upon their arrival to the Biovitrum animal care facility weighed approximately 700 g (17 weeks old). The rats were conditioned and weighed for approximately three weeks after their arrival. The rats were singly stored in standard cages during constant room conditions (temp 22+/−1° C., humidity 40-60%, 12 h light/dark cycle, lights off at 10 am). The rats received the same high fat diet (45 kcal % fat, 4.7 kcal/g; D12451) as they received at Scanbur. The diets were purchased from Research Diets, Inc., New Jersey, USA, consisted of pellets and were stored under dry and cold conditions.
The high fat fed animals which gained the highest weight were selected. This population weighed 799±60 g. The selected forty-eight (48) rats were randomized and divided into […] treatment groups in order to obtain as homogeneous groups according to body weight as possible. Each treatment group consisted of 12 rats: Group 1—vehicle, Group 2—Example 1-5 mg/kg (11 μmol/kg), Group 3—Example 1-15 mg/kg (33 μmol/kg), Group 4—Example 1-30 mg/kg (66 μmol/kg). Further nine (9) rats were allocated for measurement of compound exposure and pharmacokinetics at each dose group in parallel for the seventh and the twentyninth days. The study was started by baseline measurements for five days in order to accustom the rats to the procedure and to the experimentalists. Test compound was administered orally once a day at 9-10 am in a volume of 2.5 ml/kg i.e.an average of 2 ml per (800 g) rat. Pellets and body were weighed each day in connection with the injections. Water bottles were weighed once a week. The weighings were done with a computer-assisted Mettler Toledo PR 5002 balance. All data were transferred into an Excel template.
The food and water intake, and body weight data are calculated in gram and % of basal and expressed as mean +/−SD and/or +/−SEM.
The data of body weight and food intake was statistically analysed by two-way univariate ANOVA with repeated measurements (treatment x time) followed by one-way ANOVA for comparison between treatment groups at selected time points. Clinical chemistry measurements were analysed by one-way ANOVA followed by Dunnetts t-test for test of significance of treatment groups versus vehicle control. A difference between two groups was considered significant if P<0.05. Statistical evaluation was performed using SPSS for Windows.

Chain of 5-HT2a (P28223 whole entry, species assumed): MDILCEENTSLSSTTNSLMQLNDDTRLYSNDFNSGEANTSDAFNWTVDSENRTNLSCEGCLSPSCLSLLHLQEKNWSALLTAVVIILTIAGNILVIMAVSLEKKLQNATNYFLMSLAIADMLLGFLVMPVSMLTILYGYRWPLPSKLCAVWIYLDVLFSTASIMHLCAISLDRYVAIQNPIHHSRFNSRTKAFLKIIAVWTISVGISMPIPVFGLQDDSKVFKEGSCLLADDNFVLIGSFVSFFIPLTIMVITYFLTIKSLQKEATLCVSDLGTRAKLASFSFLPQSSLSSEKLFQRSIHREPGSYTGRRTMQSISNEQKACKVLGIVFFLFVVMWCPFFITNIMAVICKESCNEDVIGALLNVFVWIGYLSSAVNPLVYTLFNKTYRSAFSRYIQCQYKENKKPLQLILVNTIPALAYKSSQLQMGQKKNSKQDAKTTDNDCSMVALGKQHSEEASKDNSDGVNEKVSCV
Chain of κ (KOP) (Homo sapiens, UniProt P41145) (P41145 whole entry): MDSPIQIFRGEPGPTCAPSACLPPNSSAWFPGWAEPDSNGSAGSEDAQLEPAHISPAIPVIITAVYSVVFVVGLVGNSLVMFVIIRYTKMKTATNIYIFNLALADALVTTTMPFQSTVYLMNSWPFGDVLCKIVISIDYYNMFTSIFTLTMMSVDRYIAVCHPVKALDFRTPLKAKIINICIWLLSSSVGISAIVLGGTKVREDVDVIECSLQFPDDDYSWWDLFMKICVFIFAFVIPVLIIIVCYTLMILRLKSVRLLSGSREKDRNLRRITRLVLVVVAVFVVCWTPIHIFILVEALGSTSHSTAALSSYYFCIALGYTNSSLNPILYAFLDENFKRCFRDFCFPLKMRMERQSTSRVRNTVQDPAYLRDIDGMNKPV
T1 sequence (P50406 whole entry): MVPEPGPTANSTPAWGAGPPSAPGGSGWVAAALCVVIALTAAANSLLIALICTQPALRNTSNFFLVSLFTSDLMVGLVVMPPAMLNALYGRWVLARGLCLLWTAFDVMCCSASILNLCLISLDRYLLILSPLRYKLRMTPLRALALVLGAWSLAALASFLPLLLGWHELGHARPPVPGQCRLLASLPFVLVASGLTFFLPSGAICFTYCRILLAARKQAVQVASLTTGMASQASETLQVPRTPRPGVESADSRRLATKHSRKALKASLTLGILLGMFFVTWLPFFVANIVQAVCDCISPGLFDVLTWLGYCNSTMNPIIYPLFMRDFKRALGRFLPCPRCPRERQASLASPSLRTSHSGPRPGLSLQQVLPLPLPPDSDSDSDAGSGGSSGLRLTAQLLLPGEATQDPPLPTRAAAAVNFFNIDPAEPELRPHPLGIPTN

For `COc1ccc(C)cc1NS(=O)(=O)c1cc(OC2CCNCC2)c2occc2c1` [Example 1], the inhibition at 0.05 µM on human 5-HT6 receptor is no less than 20%. Moreover, the Ki on 5-HT1b (figure in parentheses after the bound, read-out: 5-HT1b Selectivity Binding (Ki), value in parentheses) was 3600 nM; on 5-HT1b (read-out: 5-HT1b Selectivity Binding (Ki)) it was greater than 1000 nM; on 5-HT2a (figure in parentheses after the bound, read-out: 5-HT2a Selectivity Binding (Ki), value in parentheses), 5600 nM; on 5-HT2a (read-out: 5-HT2a Selectivity Binding (Ki)) it was greater than 1000 nM; at 5-HT2b, 440 nM; on 5-HT2c (figure in parentheses after the bound, read-out: 5-HT2c Selectivity Binding (Ki), value in parentheses), 2300 nM. Besides, the Ki on 5-HT2c (read-out: 5-HT2c Selectivity Binding (Ki)) was greater than 1000 nM; on κ (KOP) [1], 120 nM; on 5-HT3 it was 190 nM. On κ (KOP) [2], it took 3780 nM to reach a half-maximal effect (EC50). For the same molecule, the “food intake versus vehicle, Dunnets t-test” value with food intake of DIO rats (15 mg/kg p.o.) and in the experiment on food intake of DIO rats (30 mg/kg p.o.) was “significantly different from vehicle” throughout. Also, the “food intake, days 8 to 14 and rest of the treatment period” value in the experiment with food intake of DIO rats (all dose groups, P<0.076) is “remained decreased during the rest of the treatment period, although not statistically significant”. Further, in the experiment with food intake of DIO rats (all dose groups, repeated ANOVA P<0.001), the “food intake during the first seven days” value was “decreased food intake significantly”. This molecule also gave a minimum effective dose in the experiment with food intake of DIO rats (food intake, p.o.) of 15 mg/kg.
